Experimental data reported in ChEMBL document CHEMBL1153902, “Investigations of SCIO-469-like compounds for the inhibition of p38 MAP kinase” (Bioorg Med Chem Lett, 2009).

Experiments:
[1] = Inhibition of p38 MAPK assessed as substrate phosphorylation at 10 uM by ELISA
[2] = Inhibition of p38 MAPK assessed as substrate phosphorylation by ELISA
[3] = Selectivity for p38alpha over p38beta

Row | Compound | inhibition [1] [%] | IC50 [2] [µM] | other results
1 | Fc1ccc(CN2CCN(Cc3cc4ccccc4[nH]3)CC2)cc1 | 25 | – | –
2 | Cn1c(C(=O)N2CCN(Cc3ccc(F)cc3)CC2)c(Br)c2ccccc21 | – | 2.24 | –
3 | O=C(c1[nH]c2ccccc2c1Br)N1CCN(Cc2ccc(F)cc2)CC1 | – | 6.46 | –
4 | CN(C)C(=O)C(=O)c1cn(C)c2cc(Cl)c(C(=O)N3CCC(Cc4ccc(F)cc4)CC3)cc12 | – | – | fold change (FC) [3]: 10
5 | CC(=O)c1ccc2[nH]c(C(=O)N3CCN(Cc4ccc(F)cc4)CC3)c(Cl)c2c1 | – | 6.51 | –
6 | O=C(c1[nH]c2ccccc2c1Cl)N1CCN(Cc2ccc(F)cc2)CC1 | – | 7.57 | –
7 | O=C(c1cc2ccccc2o1)N1CCN(Cc2ccc(F)cc2)CC1 | – | 8.42 | –
8 | Cn1c(C(=O)N2CCN(Cc3ccc(F)cc3)CC2)cc2ccccc21 | – | 1.36 | –
9 | O=C(c1cc2ccccc2[nH]1)N1CCC(Cc2ccccc2)CC1 | – | 1.09 | –
10 | CC(=O)c1ccc2[nH]c(C(=O)N3CCN(Cc4ccc(F)cc4)CC3)cc2c1 | 45 | – | –
11 | CC(=O)c1c(C(=O)N2CCN(Cc3ccc(F)cc3)CC2)[nH]c2ccccc12 | 24 | – | –
12 | CC(C)(C)OC(=O)n1ccc2cc(CNC(=O)N3CCN(Cc4ccc(F)cc4)CC3)ccc21 | 8 | – | –
13 | Cn1ccc2cc(NC(=O)N3CCN(Cc4ccc(F)cc4)CC3)ccc21 | 28 | – | –
14 | O=C(c1cn2ccccc2n1)N1CCN(Cc2ccc(F)cc2)CC1 | 33 | – | –
15 | O=C(c1nc2ccccc2[nH]1)N1CCN(Cc2ccc(F)cc2)CC1 | 24 | – | –
16 | O=C(c1cc2ccccc2o1)N1CCC(Cc2ccccc2)CC1 | – | 1.75 | –
17 | O=C(c1cc2ccccc2[nH]1)N1CCN(Cc2ccccc2)CC1 | – | 5.77 | –
18 | Cn1c(C(=O)N2CCN(Cc3ccc(F)cc3)CC2)nc2ccccc21 | 32 | – | –
19 | CN(C)C(=O)C(=O)c1cn(C)c2ccc(NC(=O)N3CCN(Cc4ccc(F)cc4)CC3)cc12 | 12 | – | –
20 | CC(=O)c1cccc2cc(C(=O)N3CCN(Cc4ccc(F)cc4)CC3)[nH]c12 | – | 3.61 | –
21 | CC(=O)c1cccc2c(Cl)c(C(=O)N3CCN(Cc4ccc(F)cc4)CC3)[nH]c12 | – | 2.46 | –
22 | O=C(c1cc2ccccc2[nH]1)N1CCN(Cc2ccc(F)cc2)CC1 | – | 3.2 | –
23 | O=C(c1cc2c(Br)cccc2[nH]1)N1CCN(Cc2ccc(F)cc2)CC1 | 34 | – | –
24 | O=C(c1ccco1)N1CCN(Cc2ccccc2)CC1 | 20 | – | –
25 | O=C(c1[nH]c2ccccc2c1I)N1CCN(Cc2ccc(F)cc2)CC1 | – | 7.47 | –
26 | O=C(c1ccco1)N1CCN(Cc2ccc(F)cc2)CC1 | 35 | – | –
